# Tested on: HCI-015 (organoid from a triple-negative breast cancer xenograft)
# Assay: CTG-3D luminescence at 96 h relative to day-0 seeding control (ratio to day 0); higher = more growth / less cytotoxicity; PDxO 3D drug screen, 96 h, CTG-3D normalised to day-0 seeding control.
# Details: 0.005 µM; days in culture: 218
row,Compound,CTG-3D luminescence at 96 h
1,O=C(O)C1(C(=O)O)CCC1.[NH2-].[NH2-].[Pt+2] [carboplatin],1.7
2,COc1cc2c(Oc3ccc4[nH]c(C)cc4c3F)ncnc2cc1OCCCN1CCCC1 [cediranib],1.55
3,C[C@@H]1COCCN1c1cc(C2([S@](C)(=N)=O)CC2)nc(-c2cc[nH]c3nccc2-3)n1 [ceralasertib],1.72
4,Cc1cc(Nc2ncc(Cl)c(Nc3ccccc3S(=O)(=O)C(C)C)n2)c(OC(C)C)cc1C1CCNCC1 [ceritinib],1.51
5,O=C(c1ccc(F)c(F)c1Nc1ccc(I)cc1F)N1CC(O)([C@@H]2CCCCN2)C1 [cobimetinib],2.02
6,C[C@H](NC(=O)CCC(F)(F)F)C(=O)N[C@@H]1C(=O)N(CCO)c2ncccc2-c2ccccc21 [crenigacestat],0.952
7,COc1cccc2c1C(=O)c1c(O)c3c(c(O)c1C2=O)C[C@@](O)(C(=O)CO)C[C@@H]3O[C@H]1C[C@H](N)[C@H](O)[C@H](C)O1 [doxorubicin],1.98
8,C[C@]12CC[C@@H]3c4ccc(O)cc4C[C@@H](CCCCCCCCC[S+]([O-])CCCC(F)(F)C(F)(F)F)[C@H]3[C@@H]1CC[C@@H]2O (some centres not stated) [fulvestrant],2.13
9,Nc1ccn([C@@H]2O[C@H](CO)[C@@H](O)C2(F)F)c(=O)n1 [gemcitabine],0.887

# Same assay, conditions: 0.1 µM; days in culture: 172
row,Compound,CTG-3D luminescence at 96 h
1,O=C(O)C1(C(=O)O)CCC1.[NH2-].[NH2-].[Pt+2] [carboplatin],1.49
2,COc1cc2c(Oc3ccc4[nH]c(C)cc4c3F)ncnc2cc1OCCCN1CCCC1 [cediranib],1.47
3,C[C@@H]1COCCN1c1cc(C2([S@](C)(=N)=O)CC2)nc(-c2cc[nH]c3nccc2-3)n1 [ceralasertib],1.24
4,Cc1cc(Nc2ncc(Cl)c(Nc3ccccc3S(=O)(=O)C(C)C)n2)c(OC(C)C)cc1C1CCNCC1 [ceritinib],1.44
5,O=C(c1ccc(F)c(F)c1Nc1ccc(I)cc1F)N1CC(O)([C@@H]2CCCCN2)C1 [cobimetinib],1.86
6,C[C@H](NC(=O)CCC(F)(F)F)C(=O)N[C@@H]1C(=O)N(CCO)c2ncccc2-c2ccccc21 [crenigacestat],0.655
7,COc1cccc2c1C(=O)c1c(O)c3c(c(O)c1C2=O)C[C@@](O)(C(=O)CO)C[C@@H]3O[C@H]1C[C@H](N)[C@H](O)[C@H](C)O1 [doxorubicin],0.657
8,C[C@]12CC[C@@H]3c4ccc(O)cc4C[C@@H](CCCCCCCCC[S+]([O-])CCCC(F)(F)C(F)(F)F)[C@H]3[C@@H]1CC[C@@H]2O (some centres not stated) [fulvestrant],0.904
9,Nc1ccn([C@@H]2O[C@H](CO)[C@@H](O)C2(F)F)c(=O)n1 [gemcitabine],0.109

# Same assay, conditions: 0.1 µM; days in culture: 191
row,Compound,CTG-3D luminescence at 96 h
1,O=C(O)C1(C(=O)O)CCC1.[NH2-].[NH2-].[Pt+2] [carboplatin],1.04
2,COc1cc2c(Oc3ccc4[nH]c(C)cc4c3F)ncnc2cc1OCCCN1CCCC1 [cediranib],1.16
3,C[C@@H]1COCCN1c1cc(C2([S@](C)(=N)=O)CC2)nc(-c2cc[nH]c3nccc2-3)n1 [ceralasertib],1.08
4,Cc1cc(Nc2ncc(Cl)c(Nc3ccccc3S(=O)(=O)C(C)C)n2)c(OC(C)C)cc1C1CCNCC1 [ceritinib],0.962
5,O=C(c1ccc(F)c(F)c1Nc1ccc(I)cc1F)N1CC(O)([C@@H]2CCCCN2)C1 [cobimetinib],1.17
6,C[C@H](NC(=O)CCC(F)(F)F)C(=O)N[C@@H]1C(=O)N(CCO)c2ncccc2-c2ccccc21 [crenigacestat],0.48
7,COc1cccc2c1C(=O)c1c(O)c3c(c(O)c1C2=O)C[C@@](O)(C(=O)CO)C[C@@H]3O[C@H]1C[C@H](N)[C@H](O)[C@H](C)O1 [doxorubicin],0.382
8,C[C@]12CC[C@@H]3c4ccc(O)cc4C[C@@H](CCCCCCCCC[S+]([O-])CCCC(F)(F)C(F)(F)F)[C@H]3[C@@H]1CC[C@@H]2O (some centres not stated) [fulvestrant],1.06
9,Nc1ccn([C@@H]2O[C@H](CO)[C@@H](O)C2(F)F)c(=O)n1 [gemcitabine],0.116

# Same assay, conditions: 0.1 µM; days in culture: 218
row,Compound,CTG-3D luminescence at 96 h
1,O=C(O)C1(C(=O)O)CCC1.[NH2-].[NH2-].[Pt+2] [carboplatin],1.77
2,COc1cc2c(Oc3ccc4[nH]c(C)cc4c3F)ncnc2cc1OCCCN1CCCC1 [cediranib],1.85
3,C[C@@H]1COCCN1c1cc(C2([S@](C)(=N)=O)CC2)nc(-c2cc[nH]c3nccc2-3)n1 [ceralasertib],1.55
4,Cc1cc(Nc2ncc(Cl)c(Nc3ccccc3S(=O)(=O)C(C)C)n2)c(OC(C)C)cc1C1CCNCC1 [ceritinib],1.54
5,O=C(c1ccc(F)c(F)c1Nc1ccc(I)cc1F)N1CC(O)([C@@H]2CCCCN2)C1 [cobimetinib],1.47
6,C[C@H](NC(=O)CCC(F)(F)F)C(=O)N[C@@H]1C(=O)N(CCO)c2ncccc2-c2ccccc21 [crenigacestat],0.72
7,COc1cccc2c1C(=O)c1c(O)c3c(c(O)c1C2=O)C[C@@](O)(C(=O)CO)C[C@@H]3O[C@H]1C[C@H](N)[C@H](O)[C@H](C)O1 [doxorubicin],0.575
8,C[C@]12CC[C@@H]3c4ccc(O)cc4C[C@@H](CCCCCCCCC[S+]([O-])CCCC(F)(F)C(F)(F)F)[C@H]3[C@@H]1CC[C@@H]2O (some centres not stated) [fulvestrant],1.72
9,Nc1ccn([C@@H]2O[C@H](CO)[C@@H](O)C2(F)F)c(=O)n1 [gemcitabine],0.138

# Same assay, conditions: 1 µM; days in culture: 172
row,Compound,CTG-3D luminescence at 96 h
1,O=C(O)C1(C(=O)O)CCC1.[NH2-].[NH2-].[Pt+2] [carboplatin],2.05
2,COc1cc2c(Oc3ccc4[nH]c(C)cc4c3F)ncnc2cc1OCCCN1CCCC1 [cediranib],2.43
3,C[C@@H]1COCCN1c1cc(C2([S@](C)(=N)=O)CC2)nc(-c2cc[nH]c3nccc2-3)n1 [ceralasertib],2.01
4,Cc1cc(Nc2ncc(Cl)c(Nc3ccccc3S(=O)(=O)C(C)C)n2)c(OC(C)C)cc1C1CCNCC1 [ceritinib],1.69
5,O=C(c1ccc(F)c(F)c1Nc1ccc(I)cc1F)N1CC(O)([C@@H]2CCCCN2)C1 [cobimetinib],1.47
6,C[C@H](NC(=O)CCC(F)(F)F)C(=O)N[C@@H]1C(=O)N(CCO)c2ncccc2-c2ccccc21 [crenigacestat],0.872
7,COc1cccc2c1C(=O)c1c(O)c3c(c(O)c1C2=O)C[C@@](O)(C(=O)CO)C[C@@H]3O[C@H]1C[C@H](N)[C@H](O)[C@H](C)O1 [doxorubicin],0.0852
8,C[C@]12CC[C@@H]3c4ccc(O)cc4C[C@@H](CCCCCCCCC[S+]([O-])CCCC(F)(F)C(F)(F)F)[C@H]3[C@@H]1CC[C@@H]2O (some centres not stated) [fulvestrant],2.25
9,Nc1ccn([C@@H]2O[C@H](CO)[C@@H](O)C2(F)F)c(=O)n1 [gemcitabine],0.123

# Same assay, conditions: 1 µM; days in culture: 191
row,Compound,CTG-3D luminescence at 96 h
1,O=C(O)C1(C(=O)O)CCC1.[NH2-].[NH2-].[Pt+2] [carboplatin],1.4
2,COc1cc2c(Oc3ccc4[nH]c(C)cc4c3F)ncnc2cc1OCCCN1CCCC1 [cediranib],1.39
3,C[C@@H]1COCCN1c1cc(C2([S@](C)(=N)=O)CC2)nc(-c2cc[nH]c3nccc2-3)n1 [ceralasertib],1.25
4,Cc1cc(Nc2ncc(Cl)c(Nc3ccccc3S(=O)(=O)C(C)C)n2)c(OC(C)C)cc1C1CCNCC1 [ceritinib],1.19
5,O=C(c1ccc(F)c(F)c1Nc1ccc(I)cc1F)N1CC(O)([C@@H]2CCCCN2)C1 [cobimetinib],1.01
6,C[C@H](NC(=O)CCC(F)(F)F)C(=O)N[C@@H]1C(=O)N(CCO)c2ncccc2-c2ccccc21 [crenigacestat],0.414
7,COc1cccc2c1C(=O)c1c(O)c3c(c(O)c1C2=O)C[C@@](O)(C(=O)CO)C[C@@H]3O[C@H]1C[C@H](N)[C@H](O)[C@H](C)O1 [doxorubicin],0.0711
8,C[C@]12CC[C@@H]3c4ccc(O)cc4C[C@@H](CCCCCCCCC[S+]([O-])CCCC(F)(F)C(F)(F)F)[C@H]3[C@@H]1CC[C@@H]2O (some centres not stated) [fulvestrant],1.56
9,Nc1ccn([C@@H]2O[C@H](CO)[C@@H](O)C2(F)F)c(=O)n1 [gemcitabine],0.114

# Same assay, conditions: 1 µM; days in culture: 218
row,Compound,CTG-3D luminescence at 96 h
1,O=C(O)C1(C(=O)O)CCC1.[NH2-].[NH2-].[Pt+2] [carboplatin],1.54
2,COc1cc2c(Oc3ccc4[nH]c(C)cc4c3F)ncnc2cc1OCCCN1CCCC1 [cediranib],1.49
3,C[C@@H]1COCCN1c1cc(C2([S@](C)(=N)=O)CC2)nc(-c2cc[nH]c3nccc2-3)n1 [ceralasertib],1.2
4,Cc1cc(Nc2ncc(Cl)c(Nc3ccccc3S(=O)(=O)C(C)C)n2)c(OC(C)C)cc1C1CCNCC1 [ceritinib],1.33
5,O=C(c1ccc(F)c(F)c1Nc1ccc(I)cc1F)N1CC(O)([C@@H]2CCCCN2)C1 [cobimetinib],1.39
6,C[C@H](NC(=O)CCC(F)(F)F)C(=O)N[C@@H]1C(=O)N(CCO)c2ncccc2-c2ccccc21 [crenigacestat],0.7
7,COc1cccc2c1C(=O)c1c(O)c3c(c(O)c1C2=O)C[C@@](O)(C(=O)CO)C[C@@H]3O[C@H]1C[C@H](N)[C@H](O)[C@H](C)O1 [doxorubicin],0.0701
8,C[C@]12CC[C@@H]3c4ccc(O)cc4C[C@@H](CCCCCCCCC[S+]([O-])CCCC(F)(F)C(F)(F)F)[C@H]3[C@@H]1CC[C@@H]2O (some centres not stated) [fulvestrant],1.77
9,Nc1ccn([C@@H]2O[C@H](CO)[C@@H](O)C2(F)F)c(=O)n1 [gemcitabine],0.105

# Same assay, conditions: 10 µM; days in culture: 172
row,Compound,CTG-3D luminescence at 96 h
1,O=C(O)C1(C(=O)O)CCC1.[NH2-].[NH2-].[Pt+2] [carboplatin],0.715
2,COc1cc2c(Oc3ccc4[nH]c(C)cc4c3F)ncnc2cc1OCCCN1CCCC1 [cediranib],0.0376
3,C[C@@H]1COCCN1c1cc(C2([S@](C)(=N)=O)CC2)nc(-c2cc[nH]c3nccc2-3)n1 [ceralasertib],0.531
4,Cc1cc(Nc2ncc(Cl)c(Nc3ccccc3S(=O)(=O)C(C)C)n2)c(OC(C)C)cc1C1CCNCC1 [ceritinib],0.00586
5,O=C(c1ccc(F)c(F)c1Nc1ccc(I)cc1F)N1CC(O)([C@@H]2CCCCN2)C1 [cobimetinib],0.989
6,C[C@H](NC(=O)CCC(F)(F)F)C(=O)N[C@@H]1C(=O)N(CCO)c2ncccc2-c2ccccc21 [crenigacestat],1.02
7,COc1cccc2c1C(=O)c1c(O)c3c(c(O)c1C2=O)C[C@@](O)(C(=O)CO)C[C@@H]3O[C@H]1C[C@H](N)[C@H](O)[C@H](C)O1 [doxorubicin],0.0438
8,C[C@]12CC[C@@H]3c4ccc(O)cc4C[C@@H](CCCCCCCCC[S+]([O-])CCCC(F)(F)C(F)(F)F)[C@H]3[C@@H]1CC[C@@H]2O (some centres not stated) [fulvestrant],1.34
9,Nc1ccn([C@@H]2O[C@H](CO)[C@@H](O)C2(F)F)c(=O)n1 [gemcitabine],0.136
